Measured values taken from patent US8945594B2, “Vinylic mask with peel-off effect for topical use containing high concentrations of retinoic acid” (Laboratori Farmaceutici Krymi S.p.A., priority 2010, dated 2015).

How the values were obtained:
[1] = cited from earlier work
[2] = Ex vivo determination of skin-accumulated amount of tretinoin contained in the polyvinylic mask; assay type: in vitro ADME, human; conditions: polyvinylic mask 2.5% Trans-Retinoic acid Lot P10044, n = 3, average ± s.d.
Method: Assessing the Absence of Skin Permeation of Retinoic Acid During the Application Period by Ex Vivo Determination of Skin-Accumulated Amount of the Tretinoin Contained in the Polyvinylic Mask
An ex vivo study of the skin-accumulated amount of retinoic acid contained in the polyvinylic mask was conducted at the Department of Pharmaceutical Sciences of the University of Milan. The aim of the work was the assessment of the barrier effect by polyvinyl alcohol toward the percutaneous absorption of Trans-Retinoic acid under standard conditions of use of the mask. A sample of polyvinylic mask containing 2.5% Trans-Retinoic acid (Lot n° P10044) was subjected to the test. The membrane was prepared by using skin of human origin, which is the most appropriate for foreseeing in vivo absorption. As it is known that the skin barrier against permeation of exogenous substances by passive diffusion mainly consists of the corneal layer, absorption was assessed by using as membrane the […] (SCE) obtained by mechanical separation of the derm from the skin.
The difference in the amounts of tretinoin accumulated in the membranes over the two exposure times, reported in the following table 1, is not significant; therefore, it is evident how the barrier formed by polyvinyl alcohol interferes, by inhibiting percutaneous absorption of Trans-Retinoic acid and therefore its undesired systemic effects, which instead are present in products lacking said barrier and containing it.

Amount of SCE-accumulated tretinoin ([2]; exposure time 30 min): 1.32 ± 1.01 μg/cm^2
Amount of SCE-accumulated tretinoin, % w/w with respect to the amount applied ([2]; exposure time 30 min): 1.15 ± 0.84 % w/w
Amount of SCE-accumulated tretinoin ([2]; exposure time 60 min): 1.63 ± 0.23 μg/cm^2
Amount of SCE-accumulated tretinoin, % w/w with respect to the amount applied ([2]; exposure time 60 min): 1.38 ± 0.12 % w/w
SMILES: CC1=C(/C=C/C(C)=C/C=C/C(C)=C/C(=O)O)C(C)(C)CCC1 [Tretinoin, retinoic acid]
solubility in dichloromethane [1]: soluble in dichloromethane
solubility in ethanol [1]: scarcely soluble in ethanol
solubility in ether [1]: moderately soluble in ether
solubility in water [1]: practically insoluble in water
